Source: patent US12370263B2, “Cyclic dinucleotide derivative based antibody-drug conjugates” (DAIICHI SANKYO COMPANY, LIMITED, priority 2018, dated 2025)
pEC50: −log10 of the molar value.

Columns and labels:
[1] = biological target: T1, HisAviTEV-hSTING (139-342) human AQ-mutated protein (Homo sapiens, UniProt Q86WV6, G230A/H232R/R293Q); assay: Protein thermal shift assay, STING C-terminal binding domain protein; details: test compound final concentration 0.5 mM
T1 construct: made in house; host or cells: E. coli Rosetta 2 (DE3), co-expressed with BirA (1-321)

[2] = biological target: T2, HisAviTEV-hSTING (139-342) human REF-mutated protein (Homo sapiens, UniProt Q86WV6); assay: as above; details: test compound final concentration 0.5 mM
T2 construct: made in house; host or cells: E. coli Rosetta 2 (DE3), co-expressed with BirA (1-321)

[3] = tested on: CT26.WT cells; assay: Anti-Tumor Test (1), intratumoral administration; type: in vivo, BALB/c mouse; details: 10 μg intratumorally on Day 7, 9, and 11; CT26.WT in BALB/c mice; FIGS. 7a and 7b
Procedure: Mice: Before use for experiment, 5-week-old female BALB/c mice (BALB/cAnNCrlCrlj) (Charles River Laboratories Japan, Inc.) were habituated under SPF conditions for 4 days or longer.
Measurement, calculation formula: In all the studies, the major axis and minor axis of a tumor were measured twice or three times per week by using an electronic digital caliper (CD15-CX, Mitutoyo Corporation) to calculate tumor volume (mm^3). The calculation formula is as follows. Tumor volume (mm^3)=0.5×Major axis (mm)×[Minor axis (mm)]^2
Each test compound was diluted with physiological saline (Otsuka Pharmaceutical Factory, Inc.) for use. In administration of it, 50 μL was intratumorally administered.
Cells of the mouse colorectal cancer cell line CT26.WT (CRL2638) purchased from the American Type Culture Collection were used. CT26.WT cells were suspended in physiological saline, 1.0×10^6 cells were subcutaneously transplanted into the right axilla of each BALB/c mouse (Day 0), and 7 days thereafter the mice were randomly grouped. Each test compound in a dose of 10 μg was intratumorally administered on Day 7, 9, and 11, three times in total. A group with administration of physiological saline was set as a group with a vehicle. The number of mice in each group was five or six.

[4] = biological target: T3, HisAviTEV-hSTING (139-342) human wild-type protein (Homo sapiens, UniProt Q86WV6, H232R); assay: Protein thermal shift assay, STING C-terminal binding domain protein; details: test compound final concentration 0.5 mM
T3 construct: made in house; host or cells: E. coli Rosetta 2 (DE3), co-expressed with BirA (1-321)

[5] = biological target: Human STING (Homo sapiens, UniProt Q86WV6, G230A/H232R/R293Q/R71H); assay: Reporter gene assay, human STING agonist activity, THP1-Dual cells (HAQ-mutated), IRF pathway; details: THP1-Dual cells IRF EC50, THP1-Dual cells (HAQ-mutated), 24 hours; 100% = maximum count with ML-RR-CDA·2Na+
Procedure: Human STING agonist activity was evaluated by using THP1-Dual™ cells (HAQ-mutated) (InvivoGen, CA, US), with which the activation of the pathway of interferon regulatory factor-3 (IRF3), which is present in the downstream of the STING pathway, can be confirmed.
Assay was performed as follows. First, a test compound diluted with PBS was aliquoted into a transparent 96-well plate (Corning Incorporated, NY, US) at 20 μL/well. Subsequently, reporter cells suspended in assay buffer (an RPMI1640 medium or DMEM medium containing 10% bovine serum albumin) were added at 180 μL/well (1×10^5 cells/well) to initiate stimulation. After the cells were cultured in an environment at 37° C. and 5% CO2 for 24 hours, the resultant was centrifuged to collect the supernatant. To a white 384-well plate, 6 μL of the supernatant collected was added, and 15 μL of QUANTI-Luc (InvivoGen) solution was added thereto. After the resultant was well mixed together, emission was measured by using a plate reader (PerkinElmer, Inc., MA, US).

[6] = biological target: T4, His-Avi-TEV-mSTING (138-341) mouse wild-type protein (Mus musculus, UniProt Q3TBT3); assay: Protein thermal shift assay, STING C-terminal binding domain protein; details: test compound final concentration 0.5 mM
T4 construct: made in house; host or cells: E. coli Rosetta 2 (DE3), co-expressed with BirA (1-321)
Procedure: Each of these expression strains was added to a TB medium containing 100 μg/mL ampicillin, 50 μg/mL streptomycin, and 30 μg/mL kanamycin, cultured at 37° C., then exposed to 100 μM IPTG for inducible expression, and further cultured at 16° C.
The culture solution was centrifuged, and the resulting bacterial cells were suspended in 50 mM HEPES pH 8.0, 500 mM NaCl, 20 mM imidazole, 1 mM DTT, 5% (w/v) glycerol, Complete EDTA free, and then subjected to freeze-thawing. After addition of Lysozyme and DNase I, proteins were extracted by ultrasonic disintegration, and centrifugation was performed and the resulting supernatant was collected. The supernatant obtained was purified by using an AKTA express chromatography system (GE Healthcare, IL, US) with a HisTrap FF column (GE Healthcare), and eluted with buffer (20 mM HEPES pH 7.5, 120 mM NaCl, 20% Glycerol, 0.8 mM DTT) through a Superdex 200 16/60 column (GE Healthcare). […] The protein concentrations were measured by using a NanoDrop2000 (Thermo Fisher Scientific, MA, US), and the proteins were cryopreserved at −80° C. until use.
The binding ability of each compound to the STING C-terminal binding domain proteins was evaluated by protein thermal shift assay, which uses the elevation of thermal denaturation temperature of protein as an index.
Specifically, 3 μL of a test compound (final concentration: 0.5 mM), 3 μL of SYPRO Orange Protein Gel Stain (Thermo Fisher Scientific) (final concentration: 20-fold), and 6 μL of a STING protein were mixed with use of assay buffer (20 mM Tris-HCl pH 7.5, 120 mM NaCl) in a 384-well real-time PCR plate, and mixed together with a plate shaker. With a real-time PCR system (Thermo Fisher Scientific), the temperature was increased from 25° C. to 95° C. at a rate of 0.03° C./sec, and the thermal denaturation temperature of the protein was measured by using fluorescence emitted from SYPRO Orange as an index. From the measurement acquired, Tm (the midpoint of the unfolding transition) (° C.) was determined as a temperature at which the increase rate of fluorescence intensity was maximized by using the analysis software Protein Thermal Shift software (Thermo Fisher Scientific). The Tm value for a well with no compound was subtracted from the Tm value for each test compound to calculate the Tm shift caused by the compound as ΔTm (° C.).

[7] = tested on: CT26.WT-hHER2 cells; assay: Anti-Tumor Test (6); type: in vivo, BALB/c mouse; details: 1.2 μg (equivalent of the conjugate's CDN component) into the tail vein on Day 7, once; CT26.WT-hHER2 in BALB/c mice
Procedure: Each antibody-CDN conjugate was diluted with acetate buffer (10 mM Acetate Buffer, 5% Sorbitol, pH 5.5) (NACALAI TESQUE, INC.) for use. In administration of it, 200 μL was administered into the tail vein.
CT26.WT-hHER2 cells were suspended in physiological saline, 5.0×10^6 cells were subcutaneously transplanted into the right axilla of each BALB/c mouse (Day 0), and 7 days thereafter the mice were randomly grouped. Each specimen for administration was administered into the tail vein on Day 7, once in total. A group with administration of acetate buffer was set as a group with a vehicle. The number of mice in each group was five.

Human STING, sequence (Q86WV6 whole entry R71H/G230A/H232R/R293Q, the tested form may be a part): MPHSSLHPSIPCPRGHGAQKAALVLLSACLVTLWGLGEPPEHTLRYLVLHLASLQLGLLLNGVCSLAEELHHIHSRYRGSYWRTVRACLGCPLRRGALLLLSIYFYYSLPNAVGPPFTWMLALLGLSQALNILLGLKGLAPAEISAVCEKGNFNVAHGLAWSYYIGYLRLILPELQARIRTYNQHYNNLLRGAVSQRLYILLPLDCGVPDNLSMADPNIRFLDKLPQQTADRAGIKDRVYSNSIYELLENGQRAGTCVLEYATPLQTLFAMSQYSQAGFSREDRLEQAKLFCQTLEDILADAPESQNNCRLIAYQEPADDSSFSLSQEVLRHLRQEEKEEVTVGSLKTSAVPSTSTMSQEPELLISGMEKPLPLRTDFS
T1 sequence (Q86WV6 with tags, fused parts or gaps G230A/H232R/R293Q): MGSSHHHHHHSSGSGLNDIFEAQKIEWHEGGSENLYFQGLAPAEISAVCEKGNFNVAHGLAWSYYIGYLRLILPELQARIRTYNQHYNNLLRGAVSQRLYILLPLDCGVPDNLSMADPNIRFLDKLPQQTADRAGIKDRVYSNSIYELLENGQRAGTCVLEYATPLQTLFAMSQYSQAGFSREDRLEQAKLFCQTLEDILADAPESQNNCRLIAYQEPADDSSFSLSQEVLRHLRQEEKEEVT
T2 sequence (Q86WV6 with tags, fused parts or gaps, change not shown): as the sequence (Q86WV6 with tags, fused parts or gaps G230A/H232R/R293Q) above, with A131G, R133H, Q194R counted along it
T3 sequence (Q86WV6 with tags, fused parts or gaps H232R): as the sequence (Q86WV6 with tags, fused parts or gaps G230A/H232R/R293Q) above, with A131G, Q194R counted along it
T4 sequence (Q3TBT3 with tags, fused parts or gaps limits assumed): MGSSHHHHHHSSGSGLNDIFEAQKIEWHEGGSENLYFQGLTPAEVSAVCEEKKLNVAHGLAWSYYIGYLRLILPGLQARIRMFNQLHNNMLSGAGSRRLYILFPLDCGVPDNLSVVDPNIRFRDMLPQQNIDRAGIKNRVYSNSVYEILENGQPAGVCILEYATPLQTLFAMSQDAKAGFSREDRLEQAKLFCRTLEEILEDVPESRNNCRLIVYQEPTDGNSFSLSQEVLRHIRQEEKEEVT

| Compound | ΔTm at 500 µM [1] [°C] | ΔTm at 500 µM [2] [°C] | tumor growth (tumor volume) [3] | ΔTm at 500 µM [4] [°C] | pEC50 [5] | ΔTm at 500 µM [6] [°C] | tumor growth (tumor volume) [7] |
| --- | --- | --- | --- | --- | --- | --- | --- |
| O=c1c2ncn([C@@H]3O[C@@H]4COP(=O)(S)O[C@H]5[C@@H](O)[C@H](n6cc7c8c(ncnc86)NCCC7)O[C@@H]5COP(=O)(S)O[C@@H]3[C@@H]4O)c2ncn1CCO (single isomer, unassigned) [6a] | 14.8 | 5.7 | significantly suppressed | 10.6 | 6.22 | 15.7 |  |
| NCCNc1nc(N)c2ncn([C@@H]3O[C@@H]4COP(=O)(S)O[C@H]5[C@@H](O)[C@H](n6cc7c8c(ncnc86)NCCC7)O[C@@H]5COP(=O)(S)O[C@@H]3[C@@H]4O)c2n1 (single isomer, unassigned) [8b] |  |  | significantly suppressed |  | 5.18 |  | not suppressed |
